# Reference: article PMC8333062, “Chemical tools for epichaperome-mediated interactome dysfunctions of the central nervous system” (Nature Communications, 2021)
# Read-outs that look alike come from different tables or passages of the source.
# Assays:
# Test in all cases: scanEDGE off-target screen
# Type in all cases: binding
# 97 kinases [1] = target: T1, 97 kinases (Homo sapiens, UniProt P08069); settings: read-out: %Ctrl IGF1R
# T1 construct: purchased Ambit Biosciences (scanEDGE / KINOMEscan) scanEDGE 97 kinase panel; host or cells: T7 phage in E. coli BL21-derived host; remaining kinases in HEK-293 cells
# 97 kinases [2] = target: T2, 97 kinases (Homo sapiens, UniProt P09619); settings: read-out: %Ctrl PDGFRB
# T2 construct: purchased Ambit Biosciences (scanEDGE / KINOMEscan) scanEDGE 97 kinase panel; host or cells: T7 phage in E. coli BL21-derived host; remaining kinases in HEK-293 cells
# T2 sequence (P09619 33-1106): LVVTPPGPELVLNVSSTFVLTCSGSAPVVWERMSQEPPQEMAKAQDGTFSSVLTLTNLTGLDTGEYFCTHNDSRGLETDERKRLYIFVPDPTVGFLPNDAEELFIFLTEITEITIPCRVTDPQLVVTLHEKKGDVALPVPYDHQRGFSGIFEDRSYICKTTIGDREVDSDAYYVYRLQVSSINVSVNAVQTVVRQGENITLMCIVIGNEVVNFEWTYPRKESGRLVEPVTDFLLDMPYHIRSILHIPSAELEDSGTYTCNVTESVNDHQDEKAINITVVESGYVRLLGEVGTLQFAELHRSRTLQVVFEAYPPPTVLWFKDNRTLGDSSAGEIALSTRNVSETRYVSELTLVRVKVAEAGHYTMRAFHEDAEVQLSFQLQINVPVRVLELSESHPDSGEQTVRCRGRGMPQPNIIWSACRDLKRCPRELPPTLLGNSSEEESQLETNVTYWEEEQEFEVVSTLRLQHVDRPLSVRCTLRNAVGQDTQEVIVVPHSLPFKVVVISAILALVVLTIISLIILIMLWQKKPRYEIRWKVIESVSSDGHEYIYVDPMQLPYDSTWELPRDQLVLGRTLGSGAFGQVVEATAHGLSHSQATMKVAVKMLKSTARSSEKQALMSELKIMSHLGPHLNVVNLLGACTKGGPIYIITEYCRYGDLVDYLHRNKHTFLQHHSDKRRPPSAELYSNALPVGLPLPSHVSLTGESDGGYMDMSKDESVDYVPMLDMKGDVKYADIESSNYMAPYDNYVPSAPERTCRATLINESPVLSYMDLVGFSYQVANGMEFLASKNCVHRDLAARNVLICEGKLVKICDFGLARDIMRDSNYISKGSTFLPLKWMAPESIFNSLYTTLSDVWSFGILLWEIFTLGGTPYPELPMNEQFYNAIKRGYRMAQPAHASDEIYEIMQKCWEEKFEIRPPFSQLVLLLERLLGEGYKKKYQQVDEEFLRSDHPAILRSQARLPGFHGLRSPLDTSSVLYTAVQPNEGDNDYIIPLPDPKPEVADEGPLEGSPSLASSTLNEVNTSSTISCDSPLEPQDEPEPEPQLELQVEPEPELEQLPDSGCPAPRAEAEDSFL
# 97 kinases [3] = target: T3, 97 kinases (Homo sapiens, UniProt P45983); settings: read-out: %Ctrl JNK1
# T3 construct: purchased Ambit Biosciences (scanEDGE / KINOMEscan) scanEDGE 97 kinase panel; host or cells: T7 phage in E. coli BL21-derived host; remaining kinases in HEK-293 cells
# 97 kinases [4] = target: T4, 97 kinases (Homo sapiens, UniProt O14965); settings: read-out: %Ctrl AURKA
# T4 construct: purchased Ambit Biosciences (scanEDGE / KINOMEscan) scanEDGE 97 kinase panel; host or cells: T7 phage in E. coli BL21-derived host; remaining kinases in HEK-293 cells
# 97 kinases [5] = target: T5, 97 kinases (Homo sapiens, UniProt P31751); settings: read-out: %Ctrl AKT2
# T5 construct: purchased Ambit Biosciences (scanEDGE / KINOMEscan) scanEDGE 97 kinase panel; host or cells: T7 phage in E. coli BL21-derived host; remaining kinases in HEK-293 cells
# 97 kinases [6] = target: T6, 97 kinases (Homo sapiens, UniProt P31749); settings: read-out: %Ctrl AKT1
# T6 construct: purchased Ambit Biosciences (scanEDGE / KINOMEscan) scanEDGE 97 kinase panel; host or cells: T7 phage in E. coli BL21-derived host; remaining kinases in HEK-293 cells
# 97 kinases [7] = target: T7, 97 kinases (Homo sapiens, UniProt P36897); settings: read-out: %Ctrl TGFBR1
# T7 construct: purchased Ambit Biosciences (scanEDGE / KINOMEscan) scanEDGE 97 kinase panel; host or cells: T7 phage in E. coli BL21-derived host; remaining kinases in HEK-293 cells
# 97 kinases [8] = target: T8, 97 kinases (Homo sapiens, UniProt P53779); settings: read-out: %Ctrl JNK3
# T8 construct: purchased Ambit Biosciences (scanEDGE / KINOMEscan) scanEDGE 97 kinase panel; host or cells: T7 phage in E. coli BL21-derived host; remaining kinases in HEK-293 cells
# 97 kinases [9] = target: T9, 97 kinases (Homo sapiens, UniProt Q9HBH9); settings: read-out: %Ctrl MKNK2
# T9 construct: purchased Ambit Biosciences (scanEDGE / KINOMEscan) scanEDGE 97 kinase panel; host or cells: T7 phage in E. coli BL21-derived host; remaining kinases in HEK-293 cells
# T9 sequence (Q9HBH9 whole entry): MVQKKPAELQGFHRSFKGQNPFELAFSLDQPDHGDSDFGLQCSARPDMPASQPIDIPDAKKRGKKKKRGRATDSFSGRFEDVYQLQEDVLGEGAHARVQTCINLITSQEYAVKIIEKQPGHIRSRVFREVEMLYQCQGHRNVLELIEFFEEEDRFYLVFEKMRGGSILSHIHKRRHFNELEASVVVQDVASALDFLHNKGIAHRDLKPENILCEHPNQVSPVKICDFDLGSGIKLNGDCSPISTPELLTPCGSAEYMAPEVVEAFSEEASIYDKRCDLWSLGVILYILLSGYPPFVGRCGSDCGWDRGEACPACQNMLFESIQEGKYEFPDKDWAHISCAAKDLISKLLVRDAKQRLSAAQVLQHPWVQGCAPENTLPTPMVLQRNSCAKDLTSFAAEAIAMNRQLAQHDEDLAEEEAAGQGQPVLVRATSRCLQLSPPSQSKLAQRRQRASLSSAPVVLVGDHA
# 97 kinases [10] = target: T10, 97 kinases (Homo sapiens, UniProt Q06187); settings: read-out: %Ctrl BTK
# T10 construct: purchased Ambit Biosciences (scanEDGE / KINOMEscan) scanEDGE 97 kinase panel; host or cells: T7 phage in E. coli BL21-derived host; remaining kinases in HEK-293 cells
# T10 sequence (Q06187 whole entry): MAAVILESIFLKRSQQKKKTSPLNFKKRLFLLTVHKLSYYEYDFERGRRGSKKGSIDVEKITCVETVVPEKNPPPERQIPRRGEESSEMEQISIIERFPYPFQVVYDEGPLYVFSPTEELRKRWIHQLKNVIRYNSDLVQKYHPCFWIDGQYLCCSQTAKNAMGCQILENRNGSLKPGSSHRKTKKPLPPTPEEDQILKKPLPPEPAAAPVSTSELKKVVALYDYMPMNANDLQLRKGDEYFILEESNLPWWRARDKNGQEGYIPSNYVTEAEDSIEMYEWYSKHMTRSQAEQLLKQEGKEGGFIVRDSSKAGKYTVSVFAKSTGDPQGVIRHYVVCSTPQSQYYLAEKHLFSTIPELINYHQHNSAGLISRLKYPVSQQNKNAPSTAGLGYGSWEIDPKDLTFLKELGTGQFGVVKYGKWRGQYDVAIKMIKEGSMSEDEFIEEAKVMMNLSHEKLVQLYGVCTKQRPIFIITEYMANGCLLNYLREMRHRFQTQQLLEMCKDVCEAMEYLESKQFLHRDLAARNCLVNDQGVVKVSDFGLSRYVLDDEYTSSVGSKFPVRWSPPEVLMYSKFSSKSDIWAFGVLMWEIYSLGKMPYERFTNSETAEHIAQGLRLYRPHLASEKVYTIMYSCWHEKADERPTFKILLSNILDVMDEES
# 97 kinases [11] = target: T11, 97 kinases (Homo sapiens, UniProt P35968); settings: read-out: %Ctrl VEGFR2
# T11 construct: purchased Ambit Biosciences (scanEDGE / KINOMEscan) scanEDGE 97 kinase panel; host or cells: T7 phage in E. coli BL21-derived host; remaining kinases in HEK-293 cells
# 97 kinases [12] = target: T12, 97 kinases (Homo sapiens, UniProt P10721, D816V); settings: read-out: %Ctrl KIT(D816V)
# T12 construct: purchased Ambit Biosciences (scanEDGE / KINOMEscan) scanEDGE 97 kinase panel; host or cells: T7 phage in E. coli BL21-derived host; remaining kinases in HEK-293 cells
# 97 kinases [13] = target: T13, 97 kinases (Homo sapiens, UniProt P00519, E255K); settings: read-out: %Ctrl ABL1(E255K)-phosphorylated
# T13 construct: purchased Ambit Biosciences (scanEDGE / KINOMEscan) scanEDGE 97 kinase panel; host or cells: T7 phage in E. coli BL21-derived host; remaining kinases in HEK-293 cells
# T13 sequence (P00519 whole entry E255K): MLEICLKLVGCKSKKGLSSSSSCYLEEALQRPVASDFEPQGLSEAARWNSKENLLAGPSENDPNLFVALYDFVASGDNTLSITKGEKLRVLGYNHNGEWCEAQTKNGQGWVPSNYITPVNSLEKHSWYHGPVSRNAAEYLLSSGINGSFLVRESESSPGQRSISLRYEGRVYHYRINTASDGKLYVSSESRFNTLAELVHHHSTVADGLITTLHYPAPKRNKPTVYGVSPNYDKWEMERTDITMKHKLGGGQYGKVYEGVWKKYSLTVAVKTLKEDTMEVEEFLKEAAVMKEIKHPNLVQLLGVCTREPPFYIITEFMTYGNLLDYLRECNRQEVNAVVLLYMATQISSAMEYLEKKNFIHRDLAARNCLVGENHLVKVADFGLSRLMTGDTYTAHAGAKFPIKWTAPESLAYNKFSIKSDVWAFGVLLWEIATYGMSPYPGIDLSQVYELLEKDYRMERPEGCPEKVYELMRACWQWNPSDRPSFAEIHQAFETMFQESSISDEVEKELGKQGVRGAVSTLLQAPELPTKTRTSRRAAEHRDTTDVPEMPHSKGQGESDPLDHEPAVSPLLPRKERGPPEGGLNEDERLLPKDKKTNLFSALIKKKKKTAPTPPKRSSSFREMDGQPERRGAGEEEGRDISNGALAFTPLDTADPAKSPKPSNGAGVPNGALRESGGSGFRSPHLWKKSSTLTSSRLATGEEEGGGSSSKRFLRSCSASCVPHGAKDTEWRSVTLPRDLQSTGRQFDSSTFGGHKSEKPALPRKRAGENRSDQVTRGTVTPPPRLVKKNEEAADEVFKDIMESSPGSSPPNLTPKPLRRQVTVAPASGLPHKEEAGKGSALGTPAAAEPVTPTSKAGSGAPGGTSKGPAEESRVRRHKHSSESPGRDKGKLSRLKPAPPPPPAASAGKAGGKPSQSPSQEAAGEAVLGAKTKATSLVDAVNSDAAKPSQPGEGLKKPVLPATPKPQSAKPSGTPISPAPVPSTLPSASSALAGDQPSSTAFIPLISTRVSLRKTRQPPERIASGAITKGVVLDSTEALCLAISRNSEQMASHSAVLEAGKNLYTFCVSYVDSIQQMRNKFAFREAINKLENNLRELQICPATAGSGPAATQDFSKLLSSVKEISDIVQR
# 97 kinases [14] = target: T14, 97 kinases (Homo sapiens, UniProt Q9Y463); settings: read-out: %Ctrl DYRK1B
# T14 construct: purchased Ambit Biosciences (scanEDGE / KINOMEscan) scanEDGE 97 kinase panel; host or cells: T7 phage in E. coli BL21-derived host; remaining kinases in HEK-293 cells
# 97 kinases [15] = target: T15, 97 kinases (Homo sapiens, UniProt Q9BVS4); settings: read-out: %Ctrl RIOK2
# T15 construct: purchased Ambit Biosciences (scanEDGE / KINOMEscan) scanEDGE 97 kinase panel; host or cells: T7 phage in E. coli BL21-derived host; remaining kinases in HEK-293 cells
# 97 kinases [16] = target: T16, 97 kinases (Homo sapiens, UniProt P27361); settings: read-out: %Ctrl ERK1
# T16 construct: purchased Ambit Biosciences (scanEDGE / KINOMEscan) scanEDGE 97 kinase panel; host or cells: T7 phage in E. coli BL21-derived host; remaining kinases in HEK-293 cells
# 97 kinases [17] = target: T17, 97 kinases (Homo sapiens, UniProt Q9BXA7); settings: read-out: %Ctrl TSSK1B
# T17 construct: purchased Ambit Biosciences (scanEDGE / KINOMEscan) scanEDGE 97 kinase panel; host or cells: T7 phage in E. coli BL21-derived host; remaining kinases in HEK-293 cells
# 97 kinases [18] = target: T18, 97 kinases (Homo sapiens, UniProt P36896); settings: read-out: %Ctrl ACVR1B
# T18 construct: purchased Ambit Biosciences (scanEDGE / KINOMEscan) scanEDGE 97 kinase panel; host or cells: T7 phage in E. coli BL21-derived host; remaining kinases in HEK-293 cells
# 97 kinases [19] = target: T19, 97 kinases (Homo sapiens, UniProt P00533, L858R); settings: read-out: %Ctrl EGFR(L858R)
# T19 construct: purchased Ambit Biosciences (scanEDGE / KINOMEscan) scanEDGE 97 kinase panel; host or cells: T7 phage in E. coli BL21-derived host; remaining kinases in HEK-293 cells
# 97 kinases [20] = target: T20, 97 kinases (Homo sapiens, UniProt P06213); settings: read-out: %Ctrl INSR
# T20 construct: purchased Ambit Biosciences (scanEDGE / KINOMEscan) scanEDGE 97 kinase panel; host or cells: T7 phage in E. coli BL21-derived host; remaining kinases in HEK-293 cells
# 97 kinases [21] = target: T21, 97 kinases (Homo sapiens, UniProt P10721, T670I/V559D); settings: read-out: %Ctrl KIT(V559D,T670I)
# T21 construct: purchased Ambit Biosciences (scanEDGE / KINOMEscan) scanEDGE 97 kinase panel; host or cells: T7 phage in E. coli BL21-derived host; remaining kinases in HEK-293 cells
# 97 kinases [22] = target: T22, 97 kinases (Homo sapiens, UniProt P80192); settings: read-out: %Ctrl MLK1
# T22 construct: purchased Ambit Biosciences (scanEDGE / KINOMEscan) scanEDGE 97 kinase panel; host or cells: T7 phage in E. coli BL21-derived host; remaining kinases in HEK-293 cells
# 97 kinases [23] = target: T23, 97 kinases (Homo sapiens, UniProt P16234); settings: read-out: %Ctrl PDGFRA
# T23 construct: purchased Ambit Biosciences (scanEDGE / KINOMEscan) scanEDGE 97 kinase panel; host or cells: T7 phage in E. coli BL21-derived host; remaining kinases in HEK-293 cells
# 97 kinases [24] = target: T24, 97 kinases (Homo sapiens, UniProt P36888); settings: read-out: %Ctrl FLT3
# T24 construct: purchased Ambit Biosciences (scanEDGE / KINOMEscan) scanEDGE 97 kinase panel; host or cells: T7 phage in E. coli BL21-derived host; remaining kinases in HEK-293 cells
# 97 kinases [25] = target: T25, 97 kinases (Homo sapiens, UniProt Q15759); settings: read-out: %Ctrl p38-beta
# T25 construct: purchased Ambit Biosciences (scanEDGE / KINOMEscan) scanEDGE 97 kinase panel; host or cells: T7 phage in E. coli BL21-derived host; remaining kinases in HEK-293 cells
# 97 kinases [26] = target: T26, 97 kinases (Homo sapiens, UniProt Q02763); settings: read-out: %Ctrl TIE2
# T26 construct: purchased Ambit Biosciences (scanEDGE / KINOMEscan) scanEDGE 97 kinase panel; host or cells: T7 phage in E. coli BL21-derived host; remaining kinases in HEK-293 cells
# T26 sequence (Q02763 23-1124): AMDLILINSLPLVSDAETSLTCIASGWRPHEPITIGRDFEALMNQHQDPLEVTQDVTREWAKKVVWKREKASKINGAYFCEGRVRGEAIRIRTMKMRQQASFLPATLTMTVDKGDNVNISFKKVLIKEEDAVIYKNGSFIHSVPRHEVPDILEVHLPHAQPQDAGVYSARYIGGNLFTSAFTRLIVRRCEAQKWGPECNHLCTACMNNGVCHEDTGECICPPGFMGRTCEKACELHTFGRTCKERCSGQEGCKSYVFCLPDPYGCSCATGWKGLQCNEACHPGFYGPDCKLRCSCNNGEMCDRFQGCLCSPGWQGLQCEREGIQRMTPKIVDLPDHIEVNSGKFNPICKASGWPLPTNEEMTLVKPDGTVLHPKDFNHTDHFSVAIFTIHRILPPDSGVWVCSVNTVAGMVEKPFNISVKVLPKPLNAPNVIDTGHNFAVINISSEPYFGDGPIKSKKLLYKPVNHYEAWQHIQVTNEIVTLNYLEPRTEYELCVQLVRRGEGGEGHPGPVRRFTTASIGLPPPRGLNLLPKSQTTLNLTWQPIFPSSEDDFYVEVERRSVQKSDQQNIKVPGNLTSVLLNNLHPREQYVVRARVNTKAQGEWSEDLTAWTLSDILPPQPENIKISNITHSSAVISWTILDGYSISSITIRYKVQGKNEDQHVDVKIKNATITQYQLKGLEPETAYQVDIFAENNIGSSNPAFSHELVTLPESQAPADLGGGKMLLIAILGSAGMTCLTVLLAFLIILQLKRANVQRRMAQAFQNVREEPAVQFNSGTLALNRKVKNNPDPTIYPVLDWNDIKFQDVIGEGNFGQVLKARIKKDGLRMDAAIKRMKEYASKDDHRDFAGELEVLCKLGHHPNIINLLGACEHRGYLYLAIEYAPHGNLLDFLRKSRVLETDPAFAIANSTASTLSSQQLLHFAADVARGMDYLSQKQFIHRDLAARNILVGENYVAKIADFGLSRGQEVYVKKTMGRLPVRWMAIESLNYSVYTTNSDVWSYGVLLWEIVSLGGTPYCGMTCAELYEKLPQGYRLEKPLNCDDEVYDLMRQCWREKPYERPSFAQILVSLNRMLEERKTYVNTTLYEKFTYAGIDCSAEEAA
# 97 kinases [27] = target: T27, 97 kinases (Homo sapiens, UniProt P10721); settings: read-out: %Ctrl KIT
# T27 construct: purchased Ambit Biosciences (scanEDGE / KINOMEscan) scanEDGE 97 kinase panel; host or cells: T7 phage in E. coli BL21-derived host; remaining kinases in HEK-293 cells
# 97 kinases [28] = target: T28, 97 kinases (Homo sapiens, UniProt Q02750); settings: read-out: %Ctrl MEK1
# T28 construct: purchased Ambit Biosciences (scanEDGE / KINOMEscan) scanEDGE 97 kinase panel; host or cells: T7 phage in E. coli BL21-derived host; remaining kinases in HEK-293 cells
# 97 kinases [29] = target: T29, 97 kinases (Homo sapiens, UniProt Q00536); settings: read-out: %Ctrl PCTK1
# T29 construct: purchased Ambit Biosciences (scanEDGE / KINOMEscan) scanEDGE 97 kinase panel; host or cells: T7 phage in E. coli BL21-derived host; remaining kinases in HEK-293 cells
# 97 kinases [30] = target: T30, 97 kinases (Homo sapiens, UniProt P24941); settings: read-out: %Ctrl CDK2
# T30 construct: purchased Ambit Biosciences (scanEDGE / KINOMEscan) scanEDGE 97 kinase panel; host or cells: T7 phage in E. coli BL21-derived host; remaining kinases in HEK-293 cells
# 97 kinases [31] = target: T31, 97 kinases (Homo sapiens, UniProt Q9H093); settings: read-out: %Ctrl SNARK
# T31 construct: purchased Ambit Biosciences (scanEDGE / KINOMEscan) scanEDGE 97 kinase panel; host or cells: T7 phage in E. coli BL21-derived host; remaining kinases in HEK-293 cells
# 97 kinases [32] = target: T32, 97 kinases (Homo sapiens, UniProt O96013); settings: read-out: %Ctrl PAK4
# T32 construct: purchased Ambit Biosciences (scanEDGE / KINOMEscan) scanEDGE 97 kinase panel; host or cells: T7 phage in E. coli BL21-derived host; remaining kinases in HEK-293 cells
# 97 kinases [33] = target: T33, 97 kinases (Homo sapiens, UniProt Q9UPE1); settings: read-out: %Ctrl SRPK3
# T33 construct: purchased Ambit Biosciences (scanEDGE / KINOMEscan) scanEDGE 97 kinase panel; host or cells: T7 phage in E. coli BL21-derived host; remaining kinases in HEK-293 cells
# 97 kinases [34] = target: T34, 97 kinases (Homo sapiens, UniProt P78368); settings: read-out: %Ctrl CSNK1G2
# T34 construct: purchased Ambit Biosciences (scanEDGE / KINOMEscan) scanEDGE 97 kinase panel; host or cells: T7 phage in E. coli BL21-derived host; remaining kinases in HEK-293 cells
# 97 kinases [35] = target: T35, 97 kinases (Homo sapiens, UniProt P29317); settings: read-out: %Ctrl EPHA2
# T35 construct: purchased Ambit Biosciences (scanEDGE / KINOMEscan) scanEDGE 97 kinase panel; host or cells: T7 phage in E. coli BL21-derived host; remaining kinases in HEK-293 cells
# 97 kinases [36] = target: T36, 97 kinases (Homo sapiens, UniProt P45984); settings: read-out: %Ctrl JNK2
# T36 construct: purchased Ambit Biosciences (scanEDGE / KINOMEscan) scanEDGE 97 kinase panel; host or cells: T7 phage in E. coli BL21-derived host; remaining kinases in HEK-293 cells
# T36 sequence (P45984 whole entry): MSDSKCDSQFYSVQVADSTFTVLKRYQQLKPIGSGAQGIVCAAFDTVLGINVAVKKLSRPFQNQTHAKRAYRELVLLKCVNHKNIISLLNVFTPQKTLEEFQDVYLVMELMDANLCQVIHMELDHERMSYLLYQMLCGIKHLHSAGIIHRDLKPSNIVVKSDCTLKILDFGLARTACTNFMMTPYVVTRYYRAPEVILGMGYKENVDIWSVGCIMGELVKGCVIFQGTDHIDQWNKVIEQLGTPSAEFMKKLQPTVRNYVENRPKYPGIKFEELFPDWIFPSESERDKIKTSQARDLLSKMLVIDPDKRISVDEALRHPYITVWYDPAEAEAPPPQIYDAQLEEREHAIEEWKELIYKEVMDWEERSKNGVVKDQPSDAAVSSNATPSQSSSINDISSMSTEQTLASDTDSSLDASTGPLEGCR
# 97 kinases [37] = target: T37, 97 kinases (Homo sapiens, UniProt P00519)
# T37 construct: purchased Ambit Biosciences (scanEDGE / KINOMEscan) scanEDGE 97 kinase panel; host or cells: T7 phage in E. coli BL21-derived host; remaining kinases in HEK-293 cells
# T37 sequence (P00519 whole entry): as the sequence (P00519 whole entry E255K) above, with K255E counted along it
# 97 kinases [38] = target: T38, 97 kinases (Homo sapiens, UniProt Q00526); settings: read-out: %Ctrl CDK3
# T38 construct: purchased Ambit Biosciences (scanEDGE / KINOMEscan) scanEDGE 97 kinase panel; host or cells: T7 phage in E. coli BL21-derived host; remaining kinases in HEK-293 cells
smiles,measurement,setting,value
CC(C)(C)CNCCn1c(Sc2cc3c(cc2I)OCO3)nc2c(N)ncnc21 [Compound 85],remaining binding at 10 µM,97 kinases [1],100%
same,remaining binding at 10 µM,97 kinases [2],98%
same,remaining binding at 10 µM,97 kinases [3],96%
same,remaining binding at 10 µM,97 kinases [4],96%
same,remaining binding at 10 µM,97 kinases [5],87%
same,remaining binding at 10 µM,97 kinases [6],93%
same,remaining binding at 10 µM,97 kinases [7],63%
same,remaining binding at 10 µM,97 kinases [8],100%
same,remaining binding at 10 µM,97 kinases [9],93%
same,remaining binding at 10 µM,97 kinases [10],100%
same,remaining binding at 10 µM,97 kinases [11],98%
same,remaining binding at 10 µM,97 kinases [12],93%
same,remaining binding at 10 µM,97 kinases [13],80%
same,remaining binding at 10 µM,97 kinases [14],36%
same,remaining binding at 10 µM,97 kinases [15],94%
same,remaining binding at 10 µM,97 kinases [16],100%
same,remaining binding at 10 µM,97 kinases [17],51%
same,remaining binding at 10 µM,97 kinases [18],83%
same,remaining binding at 10 µM,97 kinases [19],93%
same,remaining binding at 10 µM,97 kinases [20],92%
same,remaining binding at 10 µM,97 kinases [21],96%
same,remaining binding at 10 µM,97 kinases [22],100%
same,remaining binding at 10 µM,97 kinases [23],100%
same,remaining binding at 10 µM,97 kinases [24],100%
same,remaining binding at 10 µM,97 kinases [25],89%
same,remaining binding at 10 µM,97 kinases [26],100%
same,remaining binding at 10 µM,97 kinases [27],99%
same,remaining binding at 10 µM,97 kinases [28],99%
same,remaining binding at 10 µM,97 kinases [29],100%
same,remaining binding at 10 µM,97 kinases [30],98%
same,remaining binding at 10 µM,97 kinases [31],100%
same,remaining binding at 10 µM,97 kinases [32],100%
same,remaining binding at 10 µM,97 kinases [33],100%
same,remaining binding at 10 µM,97 kinases [34],100%
same,remaining binding at 10 µM,97 kinases [35],91%
same,remaining binding at 10 µM,97 kinases [36],93%
same,remaining binding at 10 µM,97 kinases [37]; read-out: %Ctrl ABL1-nonphosphorylated,50%
same,remaining binding at 10 µM,97 kinases [37]; read-out: %Ctrl ABL1-phosphorylated,70%
same,remaining binding at 10 µM,97 kinases [38],100%
